Key:
[1] = system: primary human hepatocytes
[2] = system: primary human hepatocytes; assay: RNA-seq of primary human hepatocytes treated with 39 small molecules (pilot and validation); conditions: for significant modulation of gene expression: RNA-seq, p-value≤0.05, primary human hepatocytes, the modulated genes are listed in the block; for Number (#) of genes having significantly changed expression: pilot RNA-seq study of Example 2, significance: FPKM≥0.5, log 2(fold change)≥1, q-value ≤0.05
[3] = system: Hematopoietic progenitor CD34+ cells; assay: qRT-PCR after inducible (pTRIPZ) shRNA knockdown in CD34+ cells; format: cell-based, human; conditions: for RQ, BAG1: relative quantification of BAG1 expression vs puro_shNT; for RQ, BAG1 / RQ, BAX / RQ, GATA1 / RQ, GATA2 / RQ, MDM2: pTRIPZ dox inducible shRNA, B-Actin internal control, Table 81; for RQ, BAX: relative quantification of BAX expression vs puro_shNT; for RQ, GATA1: relative quantification of GATA1 expression vs puro_shNT; for RQ, GATA2: relative quantification of GATA2 expression vs puro_shNT; for RQ, HBB: relative quantification of HBB expression vs puro_shNT; for RQ, HBB / RQ, RPL11 / RQ, RPS19 / RQ, p21 / RQ, p53: inducible pTRIPZ shRNA, CD34+ cells, B-ACTIN, Table 80; for RQ, MDM2: relative quantification of MDM2 expression vs puro_shNT; for RQ, RPL11: relative quantification of RPL11 expression vs puro_shNT; for RQ, RPS19: relative quantification of RPS19 expression vs puro_shNT; for RQ, p21: relative quantification of p21 expression vs puro_shNT; for RQ, p53: relative quantification of p53 expression vs puro_shNT
Procedure: Conditionally immortalized cord blood CD34+ cells were transduced with the shRNA lentiviruses using the retronectin-transduction protocol (Clontech). Puromycin selection was performed 24-48 hours post-transduction. Cells were counted to monitor cell viability. After 12 days, which allowed for a large biomass, knockdown efficiency was analyzed. qRT-PCR was used to identify changes in mRNA, and Western blot was used to determine levels of protein depletion.
For RNA extraction, 1×10^6 cells were harvested in 500 μL of TRIZOL reagent (Thermo Scientific), and incubated for 5 minutes at room temperature. Then, 100 μL of chloroform was added to the cells, and the mixture was vortexed and then centrifuged at 12,000× gravity for 15 minutes. The aqueous phase was transferred to fresh tubes and one volume of 70% ethanol was added. The TRIZOL Plus RNA purification Kit (Thermo Scientific) was used for the remaining extraction protocol according to the manufacturer's instructions. For the conversion of RNA to cDNA the High Capacity cDNA RT kit (Thermo Scientific) was used according to the manufacturer's instructions. The cDNA was analyzed with qRT-PCR to determine the fold change of knockdown cells using Taqman Fast PCR mix and Applied Biosystems probes (Thermo Scientific).
shRNAs targeting RPS19, p53, or RPL11 were delivered to normal cord blood erythroblast cells using either the pLKO (constitutive) and pTRIPZ (inducible) plasmids described in Example 1. The mRNA expression of the p53 pathway proteins; progenitor factor GATA2; and differentiation factors HBB and GATA1 were measured by qRT-PCR. Cells not transduced with a shRNA as well as cells transduced with a non-targeting shRNA served as controls.
Hematopoietic progenitor CD34^+ cells were transduced with the pTRIPZ inducible lentiviral plasmids containing p53_sh1, puro_shNT, RPL11_1, RPL11_2, RPS19_1, or RPS19_2.
The relative expression of GATA1, GATA2, MDM2, BAX, and BAG1 were also analyzed in cells transduced with a pTRIPZ dox inducible shRNA. B-Actin was used as an internal control.

hepatocytes [4] = assay: qRT-PCR validation of the Example 12 RNA-seq results;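 also: Compound-treated versus DMSO control, target Ct normalized to GAPDH or β-actin reference (ΔΔCt method), positive values mean higher expression than DMSO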
hepatocytes [5] = assay: RNA-seq of hepatocytes stimulated with the compounds of Table 68; conditions: hepatocytes, RNA-seq

C[C@H](CS)C(=O)N1CCC[C@H]1C(=O)O [MT-835, Captopril]
Log2 fold changes in gene expression: CYP2C19 [1]: 0.07
Log2 fold changes in gene expression: CYP3A4 [1]: 0.02
significant modulation of gene expression [2]: significantly (p-value≤0.05) modulate
Number (#) of genes having significantly changed expression [2]: 12

C#C[C@]1(O)CC[C@H]2[C@@H]3CCC4=Cc5oncc5C[C@]4(C)[C@H]3CC[C@@]21C [MT-487, Danazol]
Log2 fold changes in gene expression: CYP2C19 [1]: −0.03
Log2 fold changes in gene expression: CYP3A4 [1]: 0.11
significant modulation of gene expression [2]: significantly (p-value≤0.05) modulate
Number (#) of genes having significantly changed expression [2]: 5

RPS19_1 (guide TAGAACCAGTTCTCATCGTA; chemistry not fully specified; listed as Homo sapiens)
RQ, BAG1 [3]: 1.16
RQ, BAX [3]: 1.57
RQ, GATA1 [3]: 0.67
RQ, GATA2 [3]: 1.53
RQ, HBB [3]: 0.50
RQ, MDM2 [3]: 2.72
RQ, RPL11 [3]: 1.90
RQ, RPS19 [3]: 0.47
RQ, p21 [3]: 5.87
RQ, p53 [3]: 1.66

C[C@]12C=CC(=O)C=C1CC[C@@H]1[C@@H]2C(=O)C[C@@]2(C)[C@H]1CC[C@]2(O)C(=O)CO [MT-861, Prednisone]
qRT-PCR log2fc, AMACR (hepatocytes [4]; log 2 fold change in AMACR gene expression): −0.35
qRT-PCR log2fc, ARG1 (hepatocytes [4]; log 2 fold change in ARG1 gene expression): 1.53
qRT-PCR log2fc, CA2 (hepatocytes [4]; log 2 fold change in CA2 gene expression): −0.1
qRT-PCR log2fc, CIDEC (hepatocytes [4]; log 2 fold change in CIDEC gene expression): 1.1
qRT-PCR log2fc, CPS1 (hepatocytes [4]; log 2 fold change in CPS1 gene expression): 0.61
qRT-PCR log2fc, ENO3 (hepatocytes [4]; log 2 fold change in ENO3 gene expression): −0.03
qRT-PCR log2fc, G6PC (hepatocytes [4]; log 2 fold change in G6PC gene expression): 0.76
qRT-PCR log2fc, GYS2 (hepatocytes [4]; log 2 fold change in GYS2 gene expression): 0.71
qRT-PCR log2fc, HGD (hepatocytes [4]; log 2 fold change in HGD gene expression): 0.5
qRT-PCR log2fc, HOGA1 (hepatocytes [4]; log 2 fold change in HOGA1 gene expression): 1.47
qRT-PCR log2fc, HPGD (hepatocytes [4]; log 2 fold change in HPGD gene expression): 0.36
qRT-PCR log2fc, NCF2 (hepatocytes [4]; log 2 fold change in NCF2 gene expression): −0.4
qRT-PCR log2fc, RMRP (hepatocytes [4]; log 2 fold change in RMRP gene expression): −0.33
qRT-PCR log2fc, SLC37A4 (hepatocytes [4]; log 2 fold change in SLC37A4 gene expression): 0.99
qRT-PCR log2fc, TAT (hepatocytes [4]; log 2 fold change in TAT gene expression): 3.26
qRT-PCR log2fc, TDO2 (hepatocytes [4]; log 2 fold change in TDO2 gene expression): 1.41
Cuffdiff log2fc, AMACR (hepatocytes [5]; log 2 fold change in AMACR gene expression, Cuffdiff): −1.4
DESeq log2fc, AMACR (hepatocytes [5]; log 2 fold change in AMACR gene expression, DESeq): −1.24
Cuffdiff log2fc, ARG1 (hepatocytes [5]; log 2 fold change in ARG1 gene expression, Cuffdiff): 1.48
DESeq log2fc, ARG1 (hepatocytes [5]; log 2 fold change in ARG1 gene expression, DESeq): 1.59
Cuffdiff log2fc, CA2 (hepatocytes [5]; log 2 fold change in CA2 gene expression, Cuffdiff): −1.05
DESeq log2fc, CA2 (hepatocytes [5]; log 2 fold change in CA2 gene expression, DESeq): −0.95
Cuffdiff log2fc, CIDEC (hepatocytes [5]; log 2 fold change in CIDEC gene expression, Cuffdiff): 1.02
DESeq log2fc, CIDEC (hepatocytes [5]; log 2 fold change in CIDEC gene expression, DESeq): 1.19
Cuffdiff log2fc, CPS1 (hepatocytes [5]; log 2 fold change in CPS1 gene expression, Cuffdiff): 2.14
DESeq log2fc, CPS1 (hepatocytes [5]; log 2 fold change in CPS1 gene expression, DESeq): 2.17
Cuffdiff log2fc, ENO3 (hepatocytes [5]; log 2 fold change in ENO3 gene expression, Cuffdiff): −1.24
DESeq log2fc, ENO3 (hepatocytes [5]; log 2 fold change in ENO3 gene expression, DESeq): −1.03
Cuffdiff log2fc, G6PC (hepatocytes [5]; log 2 fold change in G6PC gene expression, Cuffdiff): 1.02
DESeq log2fc, G6PC (hepatocytes [5]; log 2 fold change in G6PC gene expression, DESeq): 1.03
Cuffdiff log2fc, GYS2 (hepatocytes [5]; log 2 fold change in GYS2 gene expression, Cuffdiff): 2.21
DESeq log2fc, GYS2 (hepatocytes [5]; log 2 fold change in GYS2 gene expression, DESeq): 2.49
Cuffdiff log2fc, HGD (hepatocytes [5]; log 2 fold change in HGD gene expression, Cuffdiff): 1.23
DESeq log2fc, HGD (hepatocytes [5]; log 2 fold change in HGD gene expression, DESeq): 1.31
Cuffdiff log2fc, HOGA1 (hepatocytes [5]; log 2 fold change in HOGA1 gene expression, Cuffdiff): 1
DESeq log2fc, HOGA1 (hepatocytes [5]; log 2 fold change in HOGA1 gene expression, DESeq): 1.04
Cuffdiff log2fc, HPGD (hepatocytes [5]; log 2 fold change in HPGD gene expression, Cuffdiff): 2.07
DESeq log2fc, HPGD (hepatocytes [5]; log 2 fold change in HPGD gene expression, DESeq): 2.29
Cuffdiff log2fc, NCF2 (hepatocytes [5]; log 2 fold change in NCF2 gene expression, Cuffdiff): −1.71
DESeq log2fc, NCF2 (hepatocytes [5]; log 2 fold change in NCF2 gene expression, DESeq): −1.6
Cuffdiff log2fc, RMRP (hepatocytes [5]; log 2 fold change in RMRP gene expression, Cuffdiff): −1.43
DESeq log2fc, RMRP (hepatocytes [5]; log 2 fold change in RMRP gene expression, DESeq): −0.78
Cuffdiff log2fc, SLC37A4 (hepatocytes [5]; log 2 fold change in SLC37A4 gene expression, Cuffdiff): 1.16
DESeq log2fc, SLC37A4 (hepatocytes [5]; log 2 fold change in SLC37A4 gene expression, DESeq): 1.18
Cuffdiff log2fc, TAT (hepatocytes [5]; log 2 fold change in TAT gene expression, Cuffdiff): 2.37
DESeq log2fc, TAT (hepatocytes [5]; log 2 fold change in TAT gene expression, DESeq): 2.48
Cuffdiff log2fc, TDO2 (hepatocytes [5]; log 2 fold change in TDO2 gene expression, Cuffdiff): 1.05
DESeq log2fc, TDO2 (hepatocytes [5]; log 2 fold change in TDO2 gene expression, DESeq): 1.21

RPS19_2 (guide CTTGACGGTATCCACCCATT; chemistry not fully specified; listed as Homo sapiens)
RQ, BAG1 [3]: 1.08
RQ, BAX [3]: 1.29
RQ, GATA1 [3]: 0.87
RQ, GATA2 [3]: 1.23
RQ, HBB [3]: 0.55
RQ, MDM2 [3]: 1.38
RQ, RPL11 [3]: 1.46
RQ, RPS19 [3]: 0.77
RQ, p21 [3]: 1.73
RQ, p53 [3]: 1.12
